The source of these data is patent US20240285594A1, “COMPOSITIONS AND METHODS FOR TREATING PAIN IN ANIMALS” (North Carolina State University, priority 2023, published 2024).

“Also recorded” adds a separate entry of the source. Where two headings read alike, the source gives them in different places.

Series [1] is described as follows: UPAPS behavioral pain scoring and rescue analgesia after castration (Part II). It is filed as in vivo, piglets. Conditions: -1 h, 0 h and +3 h relative to castration; compared to C (saline); listed as FM. Here is the method:
Behavior scoring was obtained in real-time by observing each piglet for 4-min continuously using Unesp-Botucatu pig acute pain scale (UPAPS). Each piglet was scored by one trained observer at the following timepoints: 1 h before castration (−1 h), immediately post-castration (0 h), and 3 h post-castration (+3 h, FIG. 3). The 4-min sampling time was obtained from the methodology previously validated. Treatments were masked, randomized, and applied to each piglet by a senior researcher. The Unesp-Botucatu UPAPS scale evaluates five behavioral items, with each item divided into four descriptive levels. A numerical score was designated from “0” to “3”, with a “0” representing normal behavior (free of pain) and “3” corresponding to pronounced behavioral deviation (severe pain). Therefore, for each timepoint, piglets may receive a score ranging from 0 (min) to 15 (max; Table 3). Total pain scores were then calculated for each piglet per timepoint. […] This is most referred to rescue analgesia in the literature; and was conducted for each behavioral assessment. Total counts were calculated for piglets identified as requiring or not requiring rescue analgesia by treatment and timepoint. […]

Series [2] can be described thus: Observations and limited gross necropsy of the nasal cavity after IN or IM flunixin. In kind it is in vivo, grower pigs.
Method: Six female Yorkshire cross grower pigs approximately 8 weeks of age with no history of flunixin administration in a 30-day period were sourced from a production farm and enrolled in the study. The pigs were determined to be healthy by veterinary physical examination and pigs initially weighed between 18.0-22.0 kg. The pigs were individually housed in climate-controlled rooms with a 12:12 light dark cycle at the North Carolina State University College of Veterinary Medicine to prevent cross contamination between pigs and damage to jugular catheters. The pens had non-slip flooring, allowed the pigs to move freely, provided enrichment, and were cleaned at least twice daily. The pigs had ad libitum access to water via a nipple drinker and were fed 0.5 quarts of Nature's Match twice daily. The pigs acclimated for 1-2 days before they were anesthetized for jugular catheter placement as described in the pilot study above and were provided approximately 24 hours to recover from anesthesia before the study began. From the time of arrival until the end of the study, the pigs were monitored at least twice daily for general appearance, attitude, appetite, and wellbeing.
Series [3] can be described thus: Pilot pharmacokinetic study of intranasal flunixin, three catheter sites. Conditions: female, Yorkshire cross, plasma, inhaled or intranasal, 3.0 mg/kg IN, one grower pig; for AUC / Cmax: pig, 3 mg/kg; for AUC: read-out: area under the curve (AUC) (converted); for Cmax: read-out: peak concentration (Cmax). In kind it is in vivo. From the text: A pilot study in one animal was initially performed to compare jugular venous drug concentrations to those of other sites (femoral artery and auricular artery), as there was concern that drainage of the nasal sinus would produce higher concentrations of flunixin in the blood collected from the jugular vein.
The pilot study involved one female Yorkshire cross grower pig sourced from a production farm weighing 25.3 kg. The pig was sedated with IM Telazol®, ketamine, and xylazine (TKX). The Telazol® was reconstituted with ketamine (250 mg; 2.5 mL) and xylazine (250 mg; 2.5 mL; Dechra Veterinary Products, Overland Park, KS, USA) and administered IM at a dose of 0.03 mL/kg (1.5 mg/kg) for each medication before being intubated and maintained on isoflurane anesthesia. A femoral arterial catheter, jugular venous catheter, and auricular arterial catheter were placed using sterile technique. […] A higher dose than the label dose was chosen to ensure that the drug would be detectable since this study's purpose was to determine an appropriate catheter site. Using an intranasal mucosal atomization device (MAD) (Teleflex, Morrisville, NC, USA) with 1 mL luer lock syringe, each nostril was infused with 0.75 mL (37.5 mg) of flunixin to administer a total of 1.5 mL (75 mg). Plasma samples were collected from each catheter site at pre-treatment (blank), 0.08, 0.25, 0.5, 0.85, 1, 1.5, 2, 2.5, and 3 hours post-treatment and analyzed using ultra performance liquid chromatography and tandem mass spectrometry (UPLC-MS/MS) to determine flunixin concentrations. A non-compartmental pharmacokinetic analysis was then performed.

The conditions of series [4]: female, Yorkshire cross, pig, in vivo, 2.2 mg/kg.
Method: Six female Yorkshire cross grower pigs approximately 8 weeks of age with no history of flunixin administration in a 30-day period were sourced from a production farm and enrolled in the study. The pigs were determined to be healthy by veterinary physical examination and pigs initially weighed between 18.0-22.0 kg. The pigs were individually housed in climate-controlled rooms with a 12:12 light dark cycle at the North Carolina State University College of Veterinary Medicine to prevent cross contamination between pigs and damage to jugular catheters. The pens had non-slip flooring, allowed the pigs to move freely, provided enrichment, and were cleaned at least twice daily. The pigs had ad libitum access to water via a nipple drinker and were fed 0.5 quarts of Nature's Match twice daily. […] From the time of arrival until the end of the study, the pigs were monitored at least twice daily for general appearance, attitude, appetite, and wellbeing.
To facilitate jugular catheter placement, the pigs were sedated with Telazol®, reconstituted with ketamine and xylazine as previously described, intubated, and maintained on gas isoflurane anesthesia. A 22-gauge, 10 cm intravenous catheter (MILA, International, Inc., Florence, KY, USA) was placed into the jugular vein using sterile technique. It was sutured in place with 3-0 nylon and covered in Ioban™ (3M, St. Paul, MN, USA) to prevent damage. The pigs wore custom jackets throughout the study to protect the catheters and an extension set was attached to allow for easy catheter access and restraint-free blood collection.
All pigs were randomized to determine the first administration route. Group 1 (n=3 pigs) and Group 2 (n=3 pigs) were used in a cross-over design and received 2.2 mg/kg flunixin (Banamine®-S, Merck Animal Health, Madison, NJ, USA) by either the IM or IN route. Following a 5-day washout period, the pigs were administered 2.2 mg/kg flunixin via the opposite route. IN administration was completed using a MAD600 MADgic laryngo-tracheal mucosal atomization device (Teleflex Medical, Morrisville, NC, USA). The luer lock syringe was attached to this device and drug was placed into the nostril. Before administration, 0.22 mL of the drug was added to the device to account for dead space volume. After the IN dose, pigs were encouraged to keep their heads raised for approximately 10 seconds to prevent leakage of the drug out of the nasal cavity. Intramuscular administration was performed in the omotransversarius muscle using a 20G needle.
Blood samples were collected at 0 (pre-treatment), 0.16, 0.33, 0.5, 0.75, 1, 1.5, 2, 3, 4, 6, 8, 12, 18, 24, 36, 48, and 60 hours post treatment. To avoid heparin contamination in samples, at least 1 mL of blood was collected as a purge sample before 1-2 mL of blood was collected and placed into lithium heparin tubes (BD Vacutainer, Franklin Lakes, NJ, USA). The purge blood was injected back into the catheter before the catheter was flushed with 3-4 mL of heparinized saline to prevent coagulation. The blood tubes were placed on ice for no more than 1 hour before they were processed. Plasma was separated by centrifugation at 3500×g for 10 minutes at 4° C., equally split between two cryovials, mixed, and stored at −80° C. until analysis.
To prepare samples, 100 μL of plasma was pipetted into a clean borosilicate glass tube (disposable culture tubes, CWR). To pretreat the plasma, 500 μL of 4% phosphoric acid prepared in water was added to each tube. Solid phase extraction was performed on an oasis prime HLB 96 well μElution plate (Waters Corporation, Milford, MA, USA). The plate was prepared by conditioning the plate with 500 μL of methanol followed by 500 μL of ultrapure water.
For series [5] the following is noted: cited from earlier work.
For series [6] the following is noted: IM flunixin 2.2 mg/kg compared to ketoprofen 3 mg/kg and meloxicam 0.4 mg/kg; swine; cited from earlier work.
Where [7] appears, read: IV administration 2.2 mg/kg, piglets, Kittrell et al. (2020).
Where [8] appears, read: PO administration 3.3 mg/kg, piglets, Kittrell et al. (2020).
Where [9] appears, read: TD administration 3.3 mg/kg, piglets, Kittrell et al. (2020).
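For time flunixin was detectable in plasma post-administration in this document: grower pigs about 8 weeks old weighing 18.0-22.0 kg, randomized cross-over of both routes separated by a 5-day washout, blood taken via jugular vein catheter.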

The AUC is concentration integrated over time. A word on the half-life: it is the time needed for the level to fall by half in the phase considered. As to `Cc1c(Nc2ncccc2C(=O)O)cccc1C(F)(F)F` [flunixin meglumine], the “total UPAPS scores” value in series [1] is given as “did not decrease; also recorded: behavioral differences were not noted”. In addition, the “adverse effects on the pigs” value in series [2] (following IN or IM administration, 2.2 mg/kg) is given as “No major adverse effects”. Also, in series [2] (following euthanasia, after IN administration), the “limited gross necropsy of the nasal cavity” value is given as “no negative effects”. Moreover, the AUC in series [3] (auricular artery) was 12800 ng·h/mL; in series [3] (femoral artery) it was 12300 ng·h/mL; in series [3] (jugular vein), 12800 ng·h/mL. The Cmax was 6000 ng/mL in series [3] (auricular artery); 5170 ng/mL in series [3] (femoral artery); 6820 ng/mL in series [3] (jugular vein); 4990 ng/mL in series [5] (setting [8]); 40 ng/mL in series [5] (setting [9]). In addition, the Tmax in series [3] (all catheter sites, read-out: time to peak concentration (Tmax)) was 0.25 h; in series [5] (setting [8]), 0.93 h; in series [5] (setting [9]), 22.50 h. Besides, the “time flunixin was detectable in plasma post-administration” value in series [4] is given as “up to 60 hours”. The half-life in series [5] (setting [7]) is 7.06 h; in series [5] (setting [8]), 11.38 h; in series [5] (setting [9]), 38.89 h. For the same compound, in series [5] (setting [7]), the “maximum observed drug concentration” value is 12.03 µg/mL. Also, the bioavailability entry in series [5] (transdermal formulation, pigs) is “low bioavailability”; in series [6], “higher bioavailability”. Besides, in series [5] (transdermal formulation, swine, Kittrell et al. (2020)), the blood concentrations entry is “low blood concentrations”. The terminal half-life result in series [6] was “longer terminal half-life”.
